Experimental data from PubChem BioAssay (NCI).
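A five-concentration, 48-hour dose response in 96-well plates underlies each endpoint, interpolated linearly between surrounding concentrations. At the GI50, growth is halved. TGI marks complete inhibition of growth.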

Assays:
Experiment in all cases: DTP human tumour cell line panel, 48 h
HCT-116 colon = test system: HCT-116 colon
RPMI-8226 leukemia = test system: RPMI-8226 leukemia
SK-MEL-5 melanoma = test system: SK-MEL-5 melanoma
KM12 colon = test system: KM12 colon
OVCAR-8 ovarian = test system: OVCAR-8 ovarian
MDA-MB-231 breast = test system: MDA-MB-231 breast
TK-10 renal = test system: TK-10 renal
OVCAR-5 ovarian = test system: OVCAR-5 ovarian
MOLT-4 leukemia = test system: MOLT-4 leukemia
SK-MEL-28 melanoma = test system: SK-MEL-28 melanoma

Compound | TGI (HCT-116 colon) [µM] | TGI (RPMI-8226 leukemia) [µM] | TGI (SK-MEL-5 melanoma) [µM] | TGI (KM12 colon) [µM] | TGI (OVCAR-8 ovarian) [µM] | TGI (MDA-MB-231 breast) [µM] | TGI (TK-10 renal) [µM] | TGI (OVCAR-5 ovarian) [µM] | TGI (MOLT-4 leukemia) [µM] | GI50 (HCT-116 colon) [µM] | GI50 (MDA-MB-231 breast) [µM] | GI50 (TK-10 renal) [µM] | TGI (SK-MEL-28 melanoma) [µM] | GI50 (RPMI-8226 leukemia) [µM] | GI50 (SK-MEL-5 melanoma) [µM] | GI50 (SK-MEL-28 melanoma) [µM] | GI50 (OVCAR-5 ovarian) [µM] | GI50 (OVCAR-8 ovarian) [µM] | GI50 (MOLT-4 leukemia) [µM] | GI50 (KM12 colon) [µM]
CCc1ccc2nc(-c3ccc(O)cc3)sc2c1 | 30.4 | 35.3 | 34.6 | 32.7 | 38.9 | 29.9 | 35.7 | 28.6 | 40.8 |  |  |  |  |  |  |  |  |  |  | 
CN(C)c1ccc(C(Cc2ccc3ccccc3n2)Cc2ccc3ccccc3n2)cc1 | > 100 |  |  |  |  | > 100 | > 100 |  |  | 2.64 | 5.41 | 4.93 |  |  |  |  |  |  |  | 
N#Cc1c(N)sc2c1-c1ccccc1OC2 | 82.8 | > 100 | > 100 | > 100 |  | > 100 | > 100 | > 100 | > 100 |  |  |  | > 100 |  |  |  |  |  |  | 
CCOC(=O)C(O)(NC(=O)c1ccccc1F)C(F)(F)F (configuration not stated) | > 100 | > 100 | > 100 | > 100 | > 100 | > 100 | > 100 | > 100 | > 100 |  |  |  | > 100 |  |  |  |  |  |  | 
CCCCCCCCCCCCCC[n+]1ccc2c(C)c3c(c(C)c2c1)c1cc(O)ccc1n3CC |  | 1.99 | 0.724 |  |  | 2.1 | 1.54 | 1.85 |  |  | 0.602 | 0.337 | 1.73 | 0.31 | 0.258 | 0.496 | 0.497 |  |  | 
COc1cc(/C=C/C(=O)c2c(C)nc3ccccc3c2C)ccc1OCCCOc1cc2c(cc1OC)C(=O)N1CCC[C@H]1C=N2 |  | 0.0477 |  |  | > 38.1 | 0.0985 | 0.0682 | 0.0868 |  |  | 0.0306 | 0.0257 | 0.044 | 0.014 |  | 0.0214 | 0.03 | 0.0329 | 0.0323 | 
CO/N=C(\C)COc1ccc2c(=O)c(-c3ccccc3)coc2c1 | 30 | > 100 | > 100 | > 100 | 46.8 | 40.9 | 42.9 | 43.8 | > 100 | 14.8 | 20.5 | 20 | > 100 | > 100 | > 100 | > 100 | 3.23 | 21.4 | > 100 | > 100
COc1cc(C2C(C(=O)O)=C(COC(C)=O)Oc3cc4c(cc32)OCO4)cc(OC)c1OC (configuration not stated) | > 100 | > 100 | > 100 |  | > 100 |  | > 100 | > 100 | > 100 |  |  |  | > 100 |  |  |  |  |  |  | 
CNC(=O)N(C)COC | > 100 | > 100 |  | > 100 | > 100 |  |  | > 100 | > 100 |  |  |  | > 100 |  |  |  |  |  |  | 
O=C(O)c1cn2c3c(cc(N4CCN(CCO)CC4)cc3c1=O)SCC2 | > 100 | > 100 | > 100 | > 100 | > 100 |  |  | > 100 | > 100 |  |  |  | > 100 |  |  |  |  |  |  | 
